Patent publication US20150315188A1, “COMPOUNDS AND METHODS FOR TREATMENT OF HYPERTENSION” (MEDIVATION TECHNOLOGIES, INC., priority 2012, published 2015)

What was measured:
Set-up in all cases: purchased Milipore (Millipore)
[1] = molecular target: T1, Human adrenergic α1B receptor (Homo sapiens, UniProt P35368); assay: Radioligand binding, adrenergic α1B (Protocol Group B); details: Protocol Group B; for Percentage inhibition of ligand binding, Adrenergic α1B (0.3 μM) / inhibition at 0.3 µM: 0.3 μM compound; for inhibition at 0.3 µM: read-out: Percentage inhibition of ligand binding, Adrenergic α1B (0.3 μM)
T1 sequence (P35368 1-520): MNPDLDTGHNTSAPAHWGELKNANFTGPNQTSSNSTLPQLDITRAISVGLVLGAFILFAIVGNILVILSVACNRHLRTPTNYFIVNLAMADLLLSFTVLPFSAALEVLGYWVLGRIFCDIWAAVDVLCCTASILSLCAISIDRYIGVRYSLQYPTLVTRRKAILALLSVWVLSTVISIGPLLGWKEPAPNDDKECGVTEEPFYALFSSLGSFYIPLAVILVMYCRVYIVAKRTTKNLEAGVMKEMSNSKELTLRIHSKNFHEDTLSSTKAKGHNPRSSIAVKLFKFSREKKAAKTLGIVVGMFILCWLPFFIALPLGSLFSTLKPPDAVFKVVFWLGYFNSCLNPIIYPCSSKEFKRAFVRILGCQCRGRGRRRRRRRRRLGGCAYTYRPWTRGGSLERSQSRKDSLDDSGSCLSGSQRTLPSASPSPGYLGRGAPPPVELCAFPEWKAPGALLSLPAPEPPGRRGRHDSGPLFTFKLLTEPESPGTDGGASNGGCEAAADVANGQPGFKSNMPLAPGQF
Summary of the method: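 Values are percent inhibition of specific [3H]prazosin (0.3 nM) binding or estimated Ki, from filtration counting. Human α1B recombinant membranes, Tris-HCl pH 7.4 buffer with MgCl2 and EDTA, 60 min at 25 °C, 1% DMSO vehicle; 10 μM prazosin defined nonspecific binding.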

[2] = molecular target: T2, Human adrenergic α2A receptor (Homo sapiens, UniProt P08913); assay: Radioligand binding, adrenergic α2A (Protocol Group B); details: Protocol Group B; for Percentage inhibition of ligand binding, Adrenergic α2A (0.3 μM) / inhibition at 0.3 µM: 0.3 μM compound; for inhibition at 0.3 µM: read-out: Percentage inhibition of ligand binding, Adrenergic α2A (0.3 μM)
T2 sequence (P08913 1-465): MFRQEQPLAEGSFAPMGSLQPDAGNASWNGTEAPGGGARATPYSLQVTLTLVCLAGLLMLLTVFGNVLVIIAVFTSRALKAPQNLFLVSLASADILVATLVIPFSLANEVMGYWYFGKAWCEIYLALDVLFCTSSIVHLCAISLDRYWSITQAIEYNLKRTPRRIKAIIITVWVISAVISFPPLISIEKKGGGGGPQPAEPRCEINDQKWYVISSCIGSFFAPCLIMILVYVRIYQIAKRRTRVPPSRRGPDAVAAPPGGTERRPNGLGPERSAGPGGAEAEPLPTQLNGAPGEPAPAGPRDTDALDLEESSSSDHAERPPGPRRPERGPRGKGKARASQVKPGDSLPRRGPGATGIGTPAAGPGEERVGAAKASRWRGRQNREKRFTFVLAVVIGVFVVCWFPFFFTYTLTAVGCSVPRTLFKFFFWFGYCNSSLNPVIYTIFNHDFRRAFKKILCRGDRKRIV
Summary of the method: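 Compounds (1% DMSO vehicle, various concentrations) competed against 2 nM [^3H]MK-912 on recombinant receptor membranes for 60 min at 25° C, Tris-HCl pH 7.4 buffer with Mg2+, Ca2+, BSA. Bound radioligand filtered and counted; 10 μM rauwolscine set nonspecific binding. Values: percent inhibition of specific binding or estimated Ki.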

[3] = molecular target: T3, Human adrenergic α2B receptor (Homo sapiens, UniProt P18089); assay: Radioligand binding, adrenergic α2B (Protocol Group B); details: Protocol Group B; for Percentage inhibition of ligand binding, Adrenergic α2B (10 nM) / inhibition at 0.01 µM: 10 nM compound; for Percentage inhibition of ligand binding, Adrenergic α2B (10 nM): 0.01 µM; for Percentage inhibition of ligand binding, Adrenergic α2B (30 nM) / inhibition at 0.03 µM: 30 nM compound; for Percentage inhibition of ligand binding, Adrenergic α2B (30 nM): 0.03 µM; for Percentage inhibition of ligand binding, Adrenergic α2B (0.1 μM) / inhibition at 0.1 µM: 0.1 μM compound; for inhibition at 0.01 µM: read-out: Percentage inhibition of ligand binding, Adrenergic α2B (10 nM); for inhibition at 0.03 µM: read-out: Percentage inhibition of ligand binding, Adrenergic α2B (30 nM); for inhibition at 0.1 µM: read-out: Percentage inhibition of ligand binding, Adrenergic α2B (0.1 μM)
T3 sequence (P18089 1-450): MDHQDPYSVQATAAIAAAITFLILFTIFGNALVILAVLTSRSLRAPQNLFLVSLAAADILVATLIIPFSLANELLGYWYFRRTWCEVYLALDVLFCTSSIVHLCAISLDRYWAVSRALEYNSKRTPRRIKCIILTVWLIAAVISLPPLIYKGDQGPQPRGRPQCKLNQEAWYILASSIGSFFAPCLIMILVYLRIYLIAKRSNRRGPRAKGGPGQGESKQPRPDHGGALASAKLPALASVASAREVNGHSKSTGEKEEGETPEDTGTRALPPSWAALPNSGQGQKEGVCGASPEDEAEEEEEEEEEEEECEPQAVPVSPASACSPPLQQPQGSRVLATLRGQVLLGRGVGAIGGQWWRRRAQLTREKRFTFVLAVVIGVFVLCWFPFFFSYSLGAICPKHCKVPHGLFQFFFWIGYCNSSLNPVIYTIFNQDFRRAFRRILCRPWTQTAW
Summary of the method: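 Compounds at various concentrations in 1% DMSO were tested on recombinant membranes in Tris-HCl pH 7.4 buffer containing MgCl2, CaCl2 and 0.2% BSA.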

| Structure (SMILES) | Percentage inhibition of ligand binding, Adrenergic α1B (0.1 μM) ([1]; 0.1 μM compound) [%] | Percentage inhibition of ligand binding, Adrenergic α1B (0.3 μM) [1] [%] | Percentage inhibition of ligand binding, Adrenergic α2A (0.1 μM) ([2]; 0.1 μM compound) [%] | Percentage inhibition of ligand binding, Adrenergic α2A (0.3 μM) [2] [%] | Percentage inhibition of ligand binding, Adrenergic α2B (10 nM) [3] [%] | Percentage inhibition of ligand binding, Adrenergic α2B (30 nM) [3] [%] | Percentage inhibition of ligand binding, Adrenergic α2B (0.1 μM) [3] [%] | inhibition at 0.3 µM [1] [%] | inhibition at 0.3 µM [2] [%] | inhibition at 0.01 µM [3] [%] | inhibition at 0.03 µM [3] [%] | inhibition at 0.1 µM [3] [%] | inhibition at 0.1 µM ([1]; 0.1 μM compound, read-out: Percentage inhibition of ligand binding, Adrenergic α1B (0.1 μM)) [%] | inhibition at 0.1 µM ([2]; 0.1 μM compound, read-out: Percentage inhibition of ligand binding, Adrenergic α2A (0.1 μM)) [%] |
| --- | --- | --- | --- | --- | --- | --- | --- | --- | --- | --- | --- | --- | --- | --- |
| CN1CCc2c(c3cc(C(F)(F)F)ccc3n2CC(OC2CCCC2)c2ccncc2)C1 (single isomer, unassigned) [60b] | −9 | 8 | 3 | 12 | 6 | 28 | 59 |  |  |  |  |  |  |  |
| Cc1ccc2c(c1)c1c(n2CC(C)(O)c2cccnc2)CC2CCC1N2C (single isomer, unassigned) [101d] | 4 | 8 | −10 | 3 | −2 | −3 | 9 |  |  |  |  |  |  |  |
| Cc1ccc2c(c1)c1c(n2CC(C)(O)c2cccnc2)CC2CCC1N2C (single isomer, unassigned) [101b] | −3 |  | 1 | 8 | 2 | 3 | 32 | 5 |  |  |  |  |  |  |
| Cc1ccc2c(c1)c1c(n2CC(C)(O)c2ccncc2)CC2CCCN2C1 (single isomer, unassigned) [37a] | 26 | 34 | 14 |  |  |  |  |  | 21 | 27 | 50 | 69 |  |  |
| CC(O)(Cn1c2c(c3cc(F)ccc31)C1CCCN1CC2)c1cccnc1 (stereo not shown) [51b] | −8 | 4 | 13 | 34 | 45 | 69 | 86 |  |  |  |  |  |  |  |
| Cc1ccc2c(c1)c1c(n2CC(C)(O)c2cccnc2)CC(CO)N(C)C1 (single isomer, unassigned) [15b] | 12 | 16 | 1 | 0 | 6 | −11 | 16 |  |  |  |  |  |  |  |
| Cc1ccc2c(c1)c1c(n2CC(C)(O)c2ccncc2)CCN2CCCC12 (single isomer, unassigned) [13c] | 9 | 28 | 11 |  | −1 |  |  |  | 21 |  | 30 | 74 |  |  |
| Cc1cc(Cl)c2c(c1)c1c(n2CC(O)c2ccncc2)CCN2CCCC12 (single isomer, unassigned) [142a] | 46 |  | 52 |  |  |  |  |  |  |  | 92 |  |  |  |
| CC(O)(Cn1c2c(c3cc(Cl)cc(F)c31)C1CCCN1CC2)c1cccnc1 (single isomer, unassigned) [53d] | −16 | −8 | 0 | 5 | −3 | −4 | −5 |  |  |  |  |  |  |  |
| Cc1cc(F)cc2c3c(n(CC(C)(O)c4ccncc4)c12)CC1CCCN1C3 (single isomer, unassigned) [78b] | 2 | 12 | −7 | 8 | 0 | 7 | 22 |  |  |  |  |  |  |  |
| Cc1ccc2c(c1)c1c(n2CC(O)c2ccccn2)CC2CCCN2C1 (single isomer, unassigned) [45c] | −5 | 3 | 0 | −11 | 11 | 4 | 19 |  |  |  |  |  |  |  |
| Cc1cc(F)c2c(c1)c1c(n2CC(C)(O)c2ccncc2)CC2CCCN2C1 (single isomer, unassigned) [62b] | 2 | 21 | 16 | 26 | 12 | 32 | 62 |  |  |  |  |  |  |  |
| Cc1ccc2c(c1)c1c(n2CC(OCC2CCC2)c2ccncc2)CCN(C)C1 (stereo not shown) [59b] |  |  |  |  |  |  |  | 62 | 65 | 84 | 97 | 99 | 28 | 39 |
| Cc1ccc2c(c1)c1c(n2CC(C)(O)c2ccncc2)CC2CCCN2C1 (single isomer, unassigned) [37c] | 15 | 37 | −2 | 14 | 19 | 46 | 73 |  |  |  |  |  |  |  |
